Earlier results on 3 compounds are cited in patent US11206824B2, “Gas delivery device comprising a gas releasing molecule and a gas permeable membrane” (Julius-Maximilians-Universitaet Wuerzburg, priority 2015, dated 2021).

Series [1] concerns liver transplantation associated I/R injury. The note with it: pre-treatment of donors, inhaled.
Series [2] relates to rodent liver. The conditions noted are these: 50 μM in modified UW solution, 48 h cold ischemia.
Series [3] relates to rodent kidney grafts. The note with it: 1 ml, 100 μmol/L in UW solution, 26 h cold preservation.
For series [4], the system named is renal warm ischemia reperfusion injury. The conditions noted are these: i.v. 20 mg/kgBW, mice.

Take `[C-]#[O+]` [CO, carbon monoxide]: the “liver transplantation associated I/R injury” value in series [1] is given as “ameliorates”.

In the case of `NCC(=O)O.[C-]#[O+].[C-]#[O+].[C-]#[O+].[Cl][Ru]` [CORM-3, tricarbonylchloro ruthenium-glycinato], in series [2], the “perfusion flow, intrahepatic resistance and metabolic capacity” value was “improved”. In series [3], the “cellular and graft injury and survival” value was “significant impact on decreasing cellular and graft injury, and improving survival”.

As to `[C-]#[O+].[C-]#[O+].[C-]#[O+].[C-]#[O+].[C-]#[O+].[C-]#[O+].[Cl][Ru][Cl].[Cl][Ru][Cl]` [CORM-2, tricarbonyldichlororuthenium(II) dimer], in series [4], the “protection against lethal renal warm ischemia reperfusion injury” value is listed as “almost completely protects”.
